# Measured values as given in ChEMBL document CHEMBL1130985, “A novel super-potent neurokinin A receptor antagonist containing dehydroalanine” (Bioorg Med Chem Lett, 1998).
# Numbered stars: 1 amine (or outer) side, 2 acyl side, 3 side chain; on linkers, the order of the positions; unused ones are H or OH. Bridge positions count the residues as written; N and C are the ends. Square brackets hold non-standard residues; d marks the D form. Peptide text beside a SMILES is read from it. X1 = O=C([C@@H](CN[*:1])CSCC1O[C@@H](O)C(O)[C@H](O)[C@H]1O)[*:2]; Dap = NC[C@H](N)C(=O)O; Dha = C=C(N)C(=O)O
# What was measured:
# [1] = target: T1, Substance-K receptor (Rattus norvegicus) (UniProt P16610); test: Antagonistic activity against Tachykinin receptor 2 in rat vas deferens at 30 nM concentration; type: functional
# T1 sequence (whole entry): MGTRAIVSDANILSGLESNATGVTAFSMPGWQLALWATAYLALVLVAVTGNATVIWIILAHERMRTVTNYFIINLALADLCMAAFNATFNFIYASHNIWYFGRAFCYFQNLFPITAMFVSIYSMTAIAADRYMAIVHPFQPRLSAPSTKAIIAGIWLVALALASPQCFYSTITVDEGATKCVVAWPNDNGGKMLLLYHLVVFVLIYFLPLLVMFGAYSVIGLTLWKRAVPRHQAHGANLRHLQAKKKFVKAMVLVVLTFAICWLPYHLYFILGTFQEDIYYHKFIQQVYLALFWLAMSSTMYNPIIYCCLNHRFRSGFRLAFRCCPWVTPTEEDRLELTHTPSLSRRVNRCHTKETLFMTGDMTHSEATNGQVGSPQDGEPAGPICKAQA
# [2] = target: T1, Substance-K receptor (Rattus norvegicus); test: Antagonistic activity against Tachykinin receptor 2 in rat vas deferens at 10 nM concentration; type: functional
# [3] = target: T2, Substance-K receptor (Rattus norvegicus, UniProt P16610); test: pA2 value against Tachykinin receptor 2 in rat vas deferens; type: tissue-based; details: for Kb: read-out: pA2 (converted)
# T2 sequence (P16610 whole entry): T1 sequence (whole entry)
# [4] = target: T1, Substance-K receptor (Rattus norvegicus); test: Antagonistic activity against Tachykinin receptor 2 in rat vas deferens at 100 nM concentration; type: functional
SMILES,Emax [1] [%],Emax [2] [%],Kb [3] [nM],Emax [4] [%],pA2 [3]
CSCC[C@@H]1NC(=O)[C@H](CC(C)C)NC(=O)[C@@H]2CNC(=O)C[C@H](NC1=O)C(=O)N[C@@H](Cc1c[nH]c3ccccc13)C(=O)N[C@@H](Cc1ccccc1)C(=O)N2 (cyclo(DWF[Dap]LM); lactam 1-4),96,95,6.17,94,–
C=C1NC(=O)[C@H](CC(C)C)NC(=O)[C@@H]2CNC(=O)C[C@H](NC1=O)C(=O)N[C@@H](Cc1c[nH]c3ccccc13)C(=O)N[C@@H](Cc1ccccc1)C(=O)N2 (cyclo(DWF[Dap]L[Dha]); lactam 1-4),–,–,–,–,9.65
CC(C)C[C@@H]1NC(=O)[C@@H]2CNC(=O)C[C@H](NC(=O)[C@H](CSCC3O[C@@H](O)C(O)[C@H](O)[C@H]3O)CNC1=O)C(=O)N[C@@H](Cc1c[nH]c3ccccc13)C(=O)N[C@@H](Cc1ccccc1)C(=O)N2 (some centres undefined) (cyclo(DWF[Dap]L[X1]); lactam 1-4),99,96,5.62,92,–
